Laboratory results published in article PMC7356696, “Synthesis, Antimicrobial Activity and Molecular Docking of Novel Thiourea Derivatives Tagged with Thiadiazole, Imidazole and Triazine Moieties as Potential DNA Gyrase and Topoisomerase IV Inhibitors” (Molecules, 2020).
In brackets after ≈: the same amount, converted by molar mass.

Assays:
[1] = system: Aspergillus flavus ATCC 46283; experiment: Agar well diffusion, inhibition zone; type: cell-based; design: dose or concentration left out as unconfirmed; settings: ATCC46283, A. flavus ATCC 46283, NA = No Activity, read-out: Mean Diameter of Inhibition Zone (Mean ± SEM)
Description: (§1) The antimicrobial activity of all synthesized compounds 2–13 was screened against a panel of two Gram-positive bacteria (Staphylococcus aureus ATCC 29213 and Bacillus subtilis ATCC 6633), two Gram-negative bacteria (Escherichia coli ATCC 25922, Pseudomonas aeruginosa ATCC 27853) and two fungi (Candida albicans ATCC 10231 and Aspergillus flavus ATCC 46283) using the agar well diffusion method. Ciprofloxacin and clotrimazole were used as antibacterial and antifungal standards, respectively. The results of this study were recorded as the average diameter of the inhibition zones (IZ) in Table 1. […] Additionally, the promising activity against S. aureus was observed from compounds 9, 12 and 13, however against B. subtilis from compounds 12 and 13.
(§2) The antimicrobial assay was performed in vitro for the target compounds 2–13 against Staphylococcus aureus ATCC 29213, Bacillus subtilis ATCC 6633 as Gram-positive bacteria, Escherichia coli ATCC 25922, Pseudomonas aeruginosa ATCC 27853 as Gram-negative bacteria and Candida albicans ATCC 10231, Aspergillus flavus ATCC 46283 as fungi. At the first, 100 μL of the test bacteria/fungi were grown in 10 mL of fresh media until they reached a count of approximately 10^8 cells/ml for bacteria or 10^5 cells/mL for fungi. One milliliter of each sample (at 0.5 mg/mL) was added to each well (10 mm diameter holes cut in the agar gel). The plates were incubated for 24 h at 37 °C (for bacteria and yeast) and for 72 h at 27 °C (for filamentous fungi), each test was repeated three times. After incubation, the microorganism’s growth was observed. Ciprofloxacin and clotrimazole were used as standard antibacterial and antifungal drugs, respectively. The resulting inhibition zone diameters were measured in millimeters using the diffusion technique. […] The different concentrations (triplicate) of each compound were tested and compared with standard drugs.

[2] = system: Pseudomonas aeruginosa ATCC 27853; experiment: Agar well diffusion, inhibition zone; type: cell-based; design: dose or concentration left out as unconfirmed; settings: ATCC27853, P. aeruginosa ATCC 27853, NA = No Activity, read-out: Mean Diameter of Inhibition Zone (Mean ± SEM)
Description: as §1, §2

[3] = system: Escherichia coli ATCC 25922; experiment: Agar well diffusion, inhibition zone; type: cell-based; design: dose or concentration left out as unconfirmed; settings: ATCC25922, E. coli ATCC 25922, NA = No Activity, read-out: Mean Diameter of Inhibition Zone (Mean ± SEM)
Description: as §1, §2

[4] = system: Candida albicans ATCC 10231; experiment: Agar well diffusion, inhibition zone; type: cell-based; design: dose or concentration left out as unconfirmed; settings: ATCC10231, C. albicans ATCC 10231, NA = No Activity, read-out: Mean Diameter of Inhibition Zone (Mean ± SEM)
Description: as §1, §2

E. coli DNA gyrase B = target: T1, E. coli DNA gyrase B (Escherichia coli, UniProt P0AES6); experiment: In vitro enzyme inhibition, DNA gyrase microplate assay kit (Inspiralis); type: biochemical
T1 construct: purchased Inspiralis
Experimental: (§3) This test was performed at the Confirmatory Diagnostic Unit, VACSERA, Egypt.
(§4) The screening performed against E. coli DNA gyrase B, E. coli Topoisomerase IV and dihydrofolate reductase enzymes.

[5] = system: human breast cancer (MCF-7) cells; experiment: MTT assay for cytotoxic activity; type: cell-based; settings: Homo sapiens, MCF7, MCF-7 cells, read-out: IC50 (Mean ± SEM), cytotoxic activity
Description: (§5) The results are expressed as IC50 values (µM) and are depicted in Table 3.

[6] = MTT assay for cytotoxic activity; type: cell-based; settings: African green monkey, Vero cells (normal kidney epithelial cell line), read-out: IC50 (Mean ± SEM), cytotoxic activity
Description: as §5

E. coli Topoisomerase IV = target: T2, E. coli Topoisomerase IV (Escherichia coli, UniProt P20083); experiment: In vitro enzyme inhibition, topoisomerase IV decatenation kit (Inspiralis); type: biochemical
T2 construct: purchased Inspiralis
T2 sequence (P0AFI2 whole entry): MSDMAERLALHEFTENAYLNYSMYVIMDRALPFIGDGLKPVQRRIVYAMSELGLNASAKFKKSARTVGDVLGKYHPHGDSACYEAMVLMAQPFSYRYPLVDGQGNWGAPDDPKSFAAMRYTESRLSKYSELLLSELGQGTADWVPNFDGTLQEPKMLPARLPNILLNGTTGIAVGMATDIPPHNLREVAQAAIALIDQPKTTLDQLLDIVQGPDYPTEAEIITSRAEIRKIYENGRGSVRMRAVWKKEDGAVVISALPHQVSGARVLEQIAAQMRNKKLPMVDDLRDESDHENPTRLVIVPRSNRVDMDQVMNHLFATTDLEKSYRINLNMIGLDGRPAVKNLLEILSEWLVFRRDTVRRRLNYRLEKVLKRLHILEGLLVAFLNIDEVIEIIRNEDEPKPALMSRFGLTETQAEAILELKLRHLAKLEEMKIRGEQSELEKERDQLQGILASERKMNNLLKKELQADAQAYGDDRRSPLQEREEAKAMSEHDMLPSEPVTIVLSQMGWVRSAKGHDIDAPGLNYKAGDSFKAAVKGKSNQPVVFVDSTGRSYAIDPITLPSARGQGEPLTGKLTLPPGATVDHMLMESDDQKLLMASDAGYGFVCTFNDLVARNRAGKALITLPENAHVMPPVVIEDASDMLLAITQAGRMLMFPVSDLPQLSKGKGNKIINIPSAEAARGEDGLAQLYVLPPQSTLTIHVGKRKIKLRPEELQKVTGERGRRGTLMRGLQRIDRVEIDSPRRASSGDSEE
T2 sequence (P20083 whole entry): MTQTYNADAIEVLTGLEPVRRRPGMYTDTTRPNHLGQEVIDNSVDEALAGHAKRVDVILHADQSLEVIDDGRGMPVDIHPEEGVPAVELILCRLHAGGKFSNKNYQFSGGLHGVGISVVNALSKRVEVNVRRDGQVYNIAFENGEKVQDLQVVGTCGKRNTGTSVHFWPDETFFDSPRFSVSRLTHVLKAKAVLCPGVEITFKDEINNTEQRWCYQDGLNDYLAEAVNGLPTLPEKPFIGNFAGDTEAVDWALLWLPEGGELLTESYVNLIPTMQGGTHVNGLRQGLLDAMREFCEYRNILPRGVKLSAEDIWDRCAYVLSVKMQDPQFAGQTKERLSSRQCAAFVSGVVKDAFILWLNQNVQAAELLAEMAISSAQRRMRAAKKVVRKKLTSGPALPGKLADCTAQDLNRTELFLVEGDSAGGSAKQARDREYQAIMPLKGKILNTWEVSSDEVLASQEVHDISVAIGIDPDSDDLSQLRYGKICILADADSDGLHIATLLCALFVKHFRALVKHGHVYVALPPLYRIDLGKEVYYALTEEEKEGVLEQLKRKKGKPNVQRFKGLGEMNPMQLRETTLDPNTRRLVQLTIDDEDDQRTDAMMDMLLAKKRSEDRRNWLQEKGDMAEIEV
Experimental: as §3, §4

[7] = target: T3, dihydrofolate reductase (DHFR) (Homo sapiens, UniProt P00374); experiment: Dihydrofolate reductase inhibitor screening kit (colorimetric, BioVision); type: biochemical; settings: read-out: IC50 (mean ± SEM)
T3 construct: purchased Bio Vision
T3 sequence (P00374 1-187): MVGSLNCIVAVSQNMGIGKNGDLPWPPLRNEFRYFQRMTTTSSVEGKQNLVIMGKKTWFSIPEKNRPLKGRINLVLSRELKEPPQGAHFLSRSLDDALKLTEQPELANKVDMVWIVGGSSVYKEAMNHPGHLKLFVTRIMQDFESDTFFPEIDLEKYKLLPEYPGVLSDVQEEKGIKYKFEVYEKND
Experimental: as §3, §4

[8] = system: Bacillus subtilis ATCC 6633; experiment: Agar well diffusion, inhibition zone; type: cell-based; design: dose or concentration left out as unconfirmed; settings: ATCC6633, B. subtilis ATCC 6633, NA = No Activity, read-out: Mean Diameter of Inhibition Zone (Mean ± SEM)
Description: as §1
as §2, with “One milliliter of each sample (at 0.5 mg/mL) was added to each well (10 mm diameter holes cut in the agar gel).” left out

[9] = system: Staphylococcus aureus ATCC 29213; experiment: Agar well diffusion, inhibition zone; type: cell-based; design: dose or concentration left out as unconfirmed; settings: ATCC29213, S. aureus ATCC 29213, NA = No Activity, read-out: Mean Diameter of Inhibition Zone (Mean ± SEM)
Description: as §1
as §2, with “One milliliter of each sample (at 0.5 mg/mL) was added to each well (10 mm diameter holes cut in the agar gel).” left out

[10] = system: Aspergillus flavus ATCC 46283; experiment: MIC, modified agar well diffusion method; type: cell-based; settings: ATCC46283, A. flavus ATCC 46283, read-out: MIC (Mean ± SEM)
Description: as §1, §2

[11] = system: Pseudomonas aeruginosa ATCC 27853; experiment: MIC, modified agar well diffusion method; type: cell-based; settings: ATCC27853, P. aeruginosa ATCC 27853, read-out: MIC (Mean ± SEM)
Description: as §1, §2

[12] = system: Escherichia coli ATCC 25922; experiment: MIC, modified agar well diffusion method; type: cell-based; settings: ATCC25922, E. coli ATCC 25922, read-out: MIC (Mean ± SEM)
Description: as §1, §2

[13] = system: Bacillus subtilis ATCC 6633; experiment: MIC, modified agar well diffusion method; type: cell-based; settings: ATCC6633, B. subtilis ATCC 6633, read-out: MIC (Mean ± SEM)
Description: as §1, §2

[14] = system: Candida albicans ATCC 10231; experiment: MIC, modified agar well diffusion method; type: cell-based; settings: ATCC10231, C. albicans ATCC 10231, read-out: MIC (Mean ± SEM)
Description: as §1, §2

[15] = system: Staphylococcus aureus ATCC 29213; experiment: MIC, modified agar well diffusion method; type: cell-based; settings: ATCC29213, S. aureus ATCC 29213, read-out: MIC (Mean ± SEM)
Description: as §1, §2

N#CCC(=O)NNC(=S)NC(=O)Cc1ccccc1 [Compound 8, 1-(2-Cyanoacetyl)-4-phenylacetylthiosemicarbazide] showed a zone of inhibition [1] of 27 ± 0.21 mm, a zone of inhibition [2] of 36 ± 0.12 mm and a zone of inhibition [3] of 27 ± 0.62 mm. It also gave a zone of inhibition [4] of 18 ± 0.05 mm, an IC50 (E. coli DNA gyrase B) of 0.33 µM and an IC50 [5] of 22.4 ± 0.36 µM. For the same compound, the IC50 [6] was 144.7 ± 0.36 µM, the IC50 (E. coli Topoisomerase IV) was 19.7 ± 1 µM and the IC50 [7] was 189.5 ± 1.06 µM. It also gave a zone of inhibition [8] of 42 ± 0.3 mm, a zone of inhibition [9] of 39 ± 1.21 mm and an MIC [10] of 2.11 ± 0.51 µg/mL (≈ 7.64 µM). For the same compound, the MIC [11] was 1.25 ± 0.5 µg/mL (≈ 4.52 µM), the MIC [12] was 0.95 ± 0.22 µg/mL (≈ 3.44 µM) and the MIC [13] was 1.38 ± 0.25 µg/mL (≈ 4.99 µM). For the same compound, the MIC [14] was 39.8 ± 0.2 µg/mL (≈ 144 µM) and the MIC [15] was 3.25 ± 1 µg/mL (≈ 11.8 µM).
